Data as given in article PMC9413440, “An Iterative Approach Guides Discovery of the FabI Inhibitor Fabimycin, a Late-Stage Antibiotic Candidate with In Vivo Efficacy against Drug-Resistant Gram-Negative Infections” (ACS Central Science, 2022).
≈ marks a conversion by molar mass, not a printed value.

What was measured:
A. baumannii AR-0313 = assay: MIC, broth microdilution (CLSI); assay type: cell-based; conditions: Acinetobacter baumannii, AR0313; A. baumannii AR-0313 clinical isolate; † = dose-independent trailing growth
Protocol: (§1) II. Materials and Methods for Biological Experiments
(§2) S. aureus ATCC 29213 and E. coli MG1655 were obtained from the American Type Culture Collection (ATCC). E. coli BW25113 and E. coli JW5503 were obtained from the Keio Collection. AR-bank strains were obtained from the Centers for Disease Control and Prevention and FDA Antibiotic Resistance Isolate Bank.
(§3) Antimicrobial susceptibility tests
(§4) Susceptibility testing was performed in biological triplicate, unless noted otherwise, using the micro-dilution broth method as outlined by the Clinical and Laboratory Standards Institute. Bacteria were cultured with cation-adjusted Mueller Hinton broth (Sigma Aldrich, catalogue number: 90922). […]
(§5) Error bars represent the standard error of the mean of three biological replicates. All compounds evaluated in biological assays were ≥95% pure.

K. pneumoniae AR-0113 = assay: MIC, broth microdilution (CLSI); assay type: cell-based; conditions: Klebsiella pneumoniae, AR0113; K. pneumoniae AR-0113 clinical isolate
Protocol: as §1, §2, §3, §4, §5

K. pneumoniae AR-0560 = assay: MIC, broth microdilution (CLSI); assay type: cell-based; conditions: Klebsiella pneumoniae, AR0560; K. pneumoniae AR-0560 clinical isolate
Protocol: as §1, §2, §3, §4
(§6) NH3: m/z 391.2 → 171.0. Fabimycin: m/z 405.3 → 145.3. Power analysis was not used to determine the number of replicates. Error bars represent the standard error of the mean of three biological replicates. All compounds evaluated in biological assays were ≥95% pure.

A. baumannii AR-0033 = assay: MIC, broth microdilution (CLSI); assay type: cell-based; conditions: Acinetobacter baumannii, AR0033; A. baumannii AR-0033 clinical isolate; † = dose-independent trailing growth
Protocol: as §1, §2, §3, §4, §6

E. coli AR-0048 = assay: MIC, broth microdilution (CLSI); assay type: cell-based; conditions: Escherichia coli, AR0048; E. coli AR-0048 clinical isolate
Protocol: as §1, §2, §3, §4, §6

A. baumannii AR-0273 = assay: MIC, broth microdilution (CLSI); assay type: cell-based; conditions: Acinetobacter baumannii, AR0273; A. baumannii AR-0273 clinical isolate
Protocol: as §1, §2, §3, §4, §6

K. pneumoniae AR-0066 = assay: MIC, broth microdilution (CLSI); assay type: cell-based; conditions: Klebsiella pneumoniae, AR0066; K. pneumoniae AR-0066 clinical isolate
Protocol: as §1, §2, §3, §4, §6

A. baumannii AR-0299 = assay: MIC, broth microdilution (CLSI); assay type: cell-based; conditions: Acinetobacter baumannii, AR0299; A. baumannii AR-0299 clinical isolate; † = dose-independent trailing growth
Protocol: as §1, §2, §3, §4, §6

K. pneumoniae BAA-2472 = assay: MIC, broth microdilution (CLSI); assay type: cell-based; conditions: Klebsiella pneumoniae, BAA2472
Protocol: as §1, §2, §3, §4, §6

E. coli MG1655 [1] = assay: MIC, broth microdilution (CLSI); assay type: cell-based; conditions: Escherichia coli
Protocol: as §1, §2, §3, §4, §6

S. aureus ATCC 29213 = assay: MIC, broth microdilution (CLSI); assay type: cell-based; conditions: Staphylococcus aureus, ATCC29213; S. aureus 29213
Protocol: as §1, §2, §3, §4, §6

E. coli AR-0085 = assay: MIC, broth microdilution (CLSI); assay type: cell-based; conditions: Escherichia coli, AR0085; E. coli AR-0085 clinical isolate
Protocol: as §1, §2, §3, §4, §6

E. coli ΔtolC (JW5503) = assay: MIC, broth microdilution (CLSI); assay type: cell-based, Escherichia coli
Protocol: as §1, §2, §3, §4, §6

[2] = set-up: method as in earlier work; conditions: mice, 20% SBE-β-CD in H2O, IP, ref 19 (SI ref 3), cited from earlier work
E. coli MG1655 [3] = system: E. coli MG1655; set-up: method as in PMID 31740764; conditions: cited from earlier work
E. coli FabI = target: T1, E. coli FabI (Escherichia coli, UniProt P0AEK4); assay: In vitro FabI enzymatic inhibition assay; assay type: biochemical; conditions: EcFabI; Morrison's quadratic fit; 5 nM enzyme; read-out: Ki app
T1 construct: His(6) with TEV site (cleaved yes); made in house; host or cells: E. coli BL21(DE3)
T1 sequence (P0AEK4 whole entry): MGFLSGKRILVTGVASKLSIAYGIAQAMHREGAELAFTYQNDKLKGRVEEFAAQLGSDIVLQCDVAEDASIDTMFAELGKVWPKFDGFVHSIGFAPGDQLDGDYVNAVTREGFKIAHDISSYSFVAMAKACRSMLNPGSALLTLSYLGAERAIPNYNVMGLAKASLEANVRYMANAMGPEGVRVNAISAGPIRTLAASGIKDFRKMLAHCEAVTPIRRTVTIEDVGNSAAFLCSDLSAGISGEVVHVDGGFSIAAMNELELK
Protocol: (§7) supplemented with 100 µg/mL ampicillin at 37°C until OD600 reached 0.6-0.7. The cells were induced with 1mM IPTG and incubated for 20 hours at 18°C and spun down at 8000 rpm for 15 minutes. Cell pellet was resuspended in the lysis buffer (50 mM Tris-HCl pH 8.0, 500 mM Na Cl, 20 mM imidazole, 10% glycerol, 0.5 mM TCEP, protease inhibitor and Lysonase) and passed through microfluidizer followed by centrifugation and filtration to remove cell debris. The clarified lysate was supplemented with 20 mM imidazole and passed over a HisTrap column (Cytiva) pre-equilibrated with the wash buffer (50 mM Tris-HCl pH 8.0, 500 mM NaCl, 20 mM imidazole, 10% glycerol, 0.5 mM TCEP). The column was washed with the wash buffer and eluted over a 20-500 mM imidazole gradient. The appropriate fractions were pooled, and the histidine tag was removed by TEV cleavage. The protein mixture was passed over a HisTrap column to separate the cleaved protein from the uncleaved ones. The cleaved protein was pooled and passed over an S75 size exclusion column (GE LifeSciences) pre-equilibrated with 50 mM Tris-HCl pH 8.0, 500 mM NaCl, 0.5 mM TCEP and 10% glycerol. Fractions containing pure protein were pooled, concentrated at 10 mg/mL and stored at -80°C. […]
(§8) In vitro FabI enzymatic inhibition assay
(§9) Recombinant E. coli and A. baummani FabI enzymes were used in a continuous NADH absorbance assay (20 µL in 384w format). Compounds and the Crotonyl-CoA substrate (Sigma–Aldrich 28007) were dispensed into a plate (GeinerBio-One 781101). The reaction was initiated by the addition of a reaction master mix solution containing enzyme and NADH (Sigma–Aldrich N8129) suspended in reaction buffer (50 mM HEPES pH 7.4, 150 mM NaCl, 1 mM EDTA, 0.01 mg/mL BSA, 0.01% Tween). Final concentrations were 5 nM enzyme, 150 μM Crotonyl-CoA, 380 μM NADH, 0.05% DMSO in 1x reaction buffer. After shaking for 5 seconds the reaction was monitored at NADH absorbance (340nm, 25°C) using a Molecular Devices SpectraMax M5 microplate reader. The linear portion of the progress curve was fit using plate-reader software. Percentage activity was calculated relative to DMSO only and no-substrate controls in each plate and the data were fit to Morrison’s quadratic using Graphpad Prism 9.3 to obtain apparent inhibition constant (Ki app) values. […]
(§10) 480 Real-Time PCR System as a function of a temperature ramp (25-95°C; 0.1°/s) and the Tm was calculated using the […]

A. baumannii FabI = A. baumannii FabI (Acinetobacter baumannii, UniProt D0CAD5); assay: In vitro FabI enzymatic inhibition assay; assay type: biochemical; conditions: AbFabI; Morrison's quadratic fit; 5 nM enzyme; read-out: Ki app
A. baumannii FabI, sequence (D0CAD5 entry or part of it): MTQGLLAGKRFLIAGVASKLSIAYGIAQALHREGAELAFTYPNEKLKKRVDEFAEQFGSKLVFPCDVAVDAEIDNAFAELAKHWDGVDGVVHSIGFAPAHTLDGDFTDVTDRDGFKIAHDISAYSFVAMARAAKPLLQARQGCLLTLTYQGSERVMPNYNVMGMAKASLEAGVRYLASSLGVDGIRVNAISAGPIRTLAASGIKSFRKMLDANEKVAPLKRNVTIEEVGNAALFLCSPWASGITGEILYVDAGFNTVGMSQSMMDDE
Protocol: as §7, §8, §9, §10

[4] = system: panel of 10 clinical isolates (two E. coli, four K. pneumoniae, four A. baumannii); assay: MIC, Gram-negative clinical isolate challenge panel; assay type: cell-based; conditions: 10 clinical isolates; read-out: MIC, all strains of the clinical isolate challenge panel
E. coli MG1655 [5] = assay: Serial passaging; assay type: cell-based, Escherichia coli; conditions: E. coli MG1655, subinhibitory concentration, 21 days
Protocol: Serial passaging procedure was done as reported in literature.5 Briefly, E. coli MG1655 cells were grown in 0.6 mL of MH media containing fabimycin and ciprofloxacin (control) at different concentrations. Cells were added to the respective compounds at 0.25X, 0.5X, 1X, 2X, and 4X to start. At 22-24 hours the cultures were checked for growth. […]
compound at varying concentrations based off of the MIC. This serial passaging was repeated for 21 days. […]
All cells were cultured […]
at 37 °C under a 5% CO2 environment. Cell lines were authenticated by a commercial vendor and inspected visually in house. Cell lines were not tested for Mycoplasma contamination. The media was prepared by the University of Illinois School of Chemical Sciences Cell Media Facility.
H. sapiens HFF-1, A549, and HepG2 cells were seeded (3,000-6,000 cells/well) in a 96-well plate (Greiner Bio-One;

Row | SMILES | MIC (A. baumannii AR-0313) | MIC (K. pneumoniae AR-0113) | MIC (K. pneumoniae AR-0560) | MIC (A. baumannii AR-0033) | MIC (E. coli AR-0048) | MIC (A. baumannii AR-0273) | MIC (K. pneumoniae AR-0066) | MIC (A. baumannii AR-0299) | MIC (K. pneumoniae BAA-2472) | MIC (E. coli MG1655 [1]) | MIC (S. aureus ATCC 29213) | MIC (E. coli AR-0085) | MIC (E. coli ΔtolC (JW5503); Escherichia coli) | also measured
1 | Cc1c(CN(C)C(=O)/C=C/c2cnc3c(c2)CC2(CC(N)C2)C(=O)N3)oc2ccccc12 (racemic) [(±)-3] | 32 µg/mL (≈ 74.3 µM) | 16 µg/mL (≈ 37.2 µM) | 8 µg/mL (≈ 18.6 µM) | 16 µg/mL (≈ 37.2 µM) | 16 µg/mL (≈ 37.2 µM) | 16 µg/mL (≈ 37.2 µM) | 8 µg/mL (≈ 18.6 µM) | 16 µg/mL (≈ 37.2 µM) | 8 µg/mL (≈ 18.6 µM) | 4 µg/mL (≈ 9.29 µM) | 0.016 µg/mL (≈ 0.0372 µM) | 16 µg/mL (≈ 37.2 µM) | 0.062 µg/mL (≈ 0.144 µM) | –
2 | Cc1c(CN(C)C(=O)/C=C/c2cnc3c(c2)CC(N)C(=O)N3)oc2ccccc12 (stereo not drawn) [Debio-1452-NH3, reference compound] | 32 µg/mL (≈ 82 µM) | 32 µg/mL (≈ 82 µM) | 32 µg/mL (≈ 82 µM) | 32 µg/mL (≈ 82 µM) | 32 µg/mL (≈ 82 µM) | 32 µg/mL (≈ 82 µM) | 32 µg/mL (≈ 82 µM) | 32 µg/mL (≈ 82 µM) | 16 µg/mL (≈ 41 µM) | – | – | 16 µg/mL (≈ 41 µM) | – | Multi-day QD dosing, MTD ([2]; 5d): 50 mg/kg; Single-dose MTD [2]: 50 mg/kg; accumulation in Gram-negative bacteria (class in Figure 1A) (E. coli MG1655 [3]): Accumulator; Ki (E. coli FabI): 9 ± 1 nM; Ki (A. baumannii FabI): 13 ± 2 nM; MIC (E. coli ΔtolC (JW5503); E. coli ΔtolC = JW5503, efflux-deficient): 0.062 µg/mL (≈ 0.159 µM)
3 | Cc1c(CN(C)C(=O)/C=C/c2cnc3c(c2)CC2(CCC(CN)CC2)C(=O)N3)oc2ccccc12 (racemic) [(±)-6] | – | – | – | – | – | – | – | – | – | 16 µg/mL (≈ 33.9 µM) | 0.031 µg/mL (≈ 0.0656 µM) | – | 0.062 µg/mL (≈ 0.131 µM) | –
4 | Cc1c(CN(C)C(=O)/C=C/c2cnc3c(c2)CCC(N)C(=O)N3)oc2ccccc12 (racemic) [(±)-7] | 8 µg/mL (≈ 19.8 µM) | 8 µg/mL (≈ 19.8 µM) | 8 µg/mL (≈ 19.8 µM) | 4 µg/mL (≈ 9.89 µM) | 4 µg/mL (≈ 9.89 µM) | 8 µg/mL (≈ 19.8 µM) | 8 µg/mL (≈ 19.8 µM) | 4 µg/mL (≈ 9.89 µM) | 8 µg/mL (≈ 19.8 µM) | 4 µg/mL (≈ 9.89 µM) | 0.016 µg/mL (≈ 0.0396 µM) | 4 µg/mL (≈ 9.89 µM) | 0.031 µg/mL (≈ 0.0766 µM) | MIC [4]: ≤ 8 µg/mL
5 | O=C(O)c1cn(C2CC2)c2cc(N3CCNCC3)c(F)cc2c1=O [ciprofloxacin, reference compound] | – | – | – | – | – | – | – | – | – | – | – | – | – | increase in the MIC after serial passaging (E. coli MG1655 [5]): 128 fold
6 | Cc1c(CN(C)C(=O)/C=C/c2cnc3c(c2)CC2(CNC2)C(=O)N3)oc2ccccc12 [compound 2] | 16 µg/mL (≈ 38.4 µM) | 16 µg/mL (≈ 38.4 µM) | 16 µg/mL (≈ 38.4 µM) | 8 µg/mL (≈ 19.2 µM) | 8 µg/mL (≈ 19.2 µM) | 8 µg/mL (≈ 19.2 µM) | 8 µg/mL (≈ 19.2 µM) | 16 µg/mL (≈ 38.4 µM) | 8 µg/mL (≈ 19.2 µM) | 4 µg/mL (≈ 9.6 µM) | 0.016 µg/mL (≈ 0.0384 µM) | 4 µg/mL (≈ 9.6 µM) | 0.031 µg/mL (≈ 0.0744 µM) | –
